Data from US10273218B2, “BCL-3 inhibitors” (University College Cardiff Consultants Limited, priority 2014, dated 2019).

Tests used:
[1] = tested on: NF-κB activity in MDA-MB-231 cells; assay: NF-kB luciferase assay, EGF-induced NF-kB activity; assay type: cell-based, human; conditions: 1 micromolar, 20 hours, then 100 ng/ml EGF for 3 hours
Method: MDA-MB-231 is a highly metastatic, human basal epithelial cell line isolated from the pleural effusion of an adenocarcinoma. The cells are ‘triple negative’ as they lack estrogen, progesterone and ERBB2 receptor and they strongly over-express EGFR. The expression of receptors in this line has been confirmed by the host laboratory.
For NF-κB luciferase assays, cells are seeded into clear bottom black 96-well plates (Corning Inc., Lowell, US) in antibiotic free culture media in appropriate density. After about 20-24 hrs, cells are transfected with 10 ng of 3×κB luciferase plasmid and 10 ng of pcDNA3.1-Lacl plasmid per well. […]
After 48 hrs post-transfection with luciferase reporter plasmid, the media is aspirated and cells are lyzed using 50 μl/well of Glo-lysis buffer (Promega, Southampton, UK). […] Subsequently, 30 μl/well of Bright-Glo luciferase substrate (Promega, Southampton, UK) is added to the original plate and is assayed immediately for luminescence activity. The luminescence produced from either reaction is read using a Fluorostar Optima plate reader (BMG tabtech, Bucks, UK). […]
After 48 hrs post-transfection with luciferase reporter plasmid, the media was aspirated and cells were lyzed using 50 μl/well of Glo-lysis buffer (Promega, Southampton, UK). […] The luminescence produced from either reaction was read using a Flurostar Optima plate reader (BMG tabtech, Bucks, UK). […]

[2] = tested on: MDA-MB-231-Luc highly metastatic human breast cancer cells; assay: in vivo metastasis mouse model, disease free survival; design: species or system Nude mice; conditions: 3.5 mg/Kg once daily for 10 days; MDA-MB-231-Luc i.v.; monitored up to 49 days
Method: Nude mice are injected i.v. with 200,000 highly metastatic human breast cancer cells expressing luciferase (MDA-MB-231-Luc) then are given a compound of Formula (I) or Formula (Ia) once daily for about 10 days and are monitored for tumours by total body scan using Xenogen-IVIS. Mice with a luciferase signal above background in repeated scans in any part of their torso are scored as having metastatic disease. Total light emission in the abdominal region is quantified at time points up to 49 days post surgery and plotted as mean total light yield.
Nude mice were injected i.v. with 200,000 highly metastatic human breast cancer cells expressing luciferase (MDA-MB-231-Luc) then given 3.5 mg/Kg of compound 12, reference compound A, or Reference compound B once daily for 10 days and monitored for tumours by total body scan using Xenogen-IVIS. Mice with a luciferase signal above background in repeated scans in any part of their torso were scored as having metastatic disease. Total light emission in abdominal region was quantified at time points up to 49 days post surgery and plotted as mean total light yield. Control n=12, Reference compound A n=10, Reference compound B n=4; compound 12 n=4.

[3] = tested on: MDA-MB-231 human breast cancer cells; assay: mouse Model 2 (colonization, growth and spread of secondary lesions at distal sites); assay type: in vivo, mice; conditions: 3.5 mg/kg intraperitoneally daily
Method: In all experiments, each compound was administered by intraperitoneally at 3.5 mg/kg.
Another model (Model 2) tested the effect of the compound's ability to inhibit the colonization and subsequent growth and spread of secondary lesions at distal sites. Human tumour cell lines were injected into the bloodstream of recipient mice, followed 2 days later by single daily intraperitoneal injections of the compound (3.5 mg/kg in 1% DMSO) for the entire course of the experiment. Tumour burden was monitored longitudinally for up to 8 weeks in vivo by live luminescence imaging, and subsequently histology performed on affected organs at the end of the experiment.
MDA-MB-231 human breast cancer cells were used in each of the three xenograft models of metastatic breast cancer.

[4] = tested on: MDA-MB-436 cells (triple negative breast invasive ductal carcinoma); assay: mouse Model 4 (tumour growth at transplantation site), MDA-MB-436; assay type: in vivo, mice; conditions: 3.5 mg/kg in 1% DMSO intraperitoneal daily; MDA-MB-436 subcutaneous; caliper tumour volume
Method: Another model (Model 4) studied the effect of the compound's ability to inhibit the growth of tumour cells at the transplantation site. Human tumour cell lines were injected subcutaneously into recipient mice, followed 2 days later by single daily intraperitoneal injections of a compound (3.5 mg/kg in 1% DMSO) for the entire course of the experiment. Tumour burden was monitored longitudinally for up to 12 weeks in vivo by palpation and caliper measurements of tumour volume, and subsequently histology performed on tumours at the end of the experiment.
Model 4 tested the effect of compounds of the application to inhibit the growth of tumour cells at the transplantation site. MDA-MB-436 cells were injected subcutaneously into recipient mice, followed 2 days later by single daily intraperitoneal injections of compound 12 (3.5 mg/kg in 1% DMSO) for the entire course of the experiment. Tumour burden was monitored longitudinally for up to 12 weeks in vivo by palpation and caliper measurements of tumour volume, and subsequently histology performed on tumours at the end of the experiment.

COc1ccc(C(=O)Nc2ccccc2C(=O)NCCN2CCOCC2)c(F)c1 [Compound 12, 2-fluoro-4-methoxy-N-(2-((2-morpholinoethyl)carbamoyl)phenyl) benzamide]
greater suppression of NF-kB activity as compared to reference compound A [1]: 25% | suppression of EGF induced NF-kB activity ([1]; MDA-MB-231 NF-kB promoter luciferase reporter): 100% | disease free survival [2]: 100% | effect on subsequent growth and spread of the secondary tumours (FIG. 9) [3]: significant effects | average tumour growth at the transplantation site [4]: significant reductions in average tumour growth
